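GI50: concentration for 50% inhibition of growth. TGI is the concentration that stops growth completely.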
Tests used:
Experiment in all cases: NCI tumour cell line growth inhibition, 384-well format
OVCAR-8 ovarian = tested on: OVCAR-8 ovarian
SNB-19 CNS = tested on: SNB-19 CNS
MDA-MB-468 breast = tested on: MDA-MB-468 breast
UACC-257 melanoma = tested on: UACC-257 melanoma
CAKI-1 renal = tested on: CAKI-1 renal
SK-MEL-2 melanoma = tested on: SK-MEL-2 melanoma
SNB-75 CNS = tested on: SNB-75 CNS
OVCAR-4 ovarian = tested on: OVCAR-4 ovarian
SN12C renal = tested on: SN12C renal
SK-MEL-28 melanoma = tested on: SK-MEL-28 melanoma
MALME-3M melanoma = tested on: MALME-3M melanoma
RPMI-8226 leukemia = tested on: RPMI-8226 leukemia
HCT-15 colon = tested on: HCT-15 colon
TK-10 renal = tested on: TK-10 renal
CCRF-CEM leukemia = tested on: CCRF-CEM leukemia
SK-OV-3 ovarian = tested on: SK-OV-3 ovarian
MDA-MB-231 breast = tested on: MDA-MB-231 breast
MCF7 breast = tested on: MCF7 breast
IGROV1 ovarian = tested on: IGROV1 ovarian
NCI-H522 lung = tested on: NCI-H522 lung
EKVX NSCLC = tested on: EKVX NSCLC
T-47D breast = tested on: T-47D breast
SF-539 CNS = tested on: SF-539 CNS
A498 renal = tested on: A498 renal
MOLT-4 leukemia = tested on: MOLT-4 leukemia
K-562 leukemia = tested on: K-562 leukemia
BT-549 breast = tested on: BT-549 breast
HS 578T breast = tested on: HS 578T breast
LOX IMVI melanoma = tested on: LOX IMVI melanoma
NCI/ADR-RES ovarian = tested on: NCI/ADR-RES ovarian
HOP-62 NSCLC = tested on: HOP-62 NSCLC
SF-268 CNS = tested on: SF-268 CNS
NCI-H226 lung = tested on: NCI-H226 lung
786-0 renal = tested on: 786-0 renal
NCI-H322M lung = tested on: NCI-H322M lung
SF-295 CNS = tested on: SF-295 CNS
NCI-H23 lung = tested on: NCI-H23 lung
RXF 393 renal = tested on: RXF 393 renal
SW-620 colon = tested on: SW-620 colon
DU-145 prostate = tested on: DU-145 prostate
UACC-62 melanoma = tested on: UACC-62 melanoma
ACHN renal = tested on: ACHN renal
OVCAR-5 ovarian = tested on: OVCAR-5 ovarian
U251 glioblastoma = tested on: U251 glioblastoma
UO-31 renal = tested on: UO-31 renal
M14 melanoma = tested on: M14 melanoma
HL-60(TB) leukemia = tested on: HL-60(TB) leukemia
A549 NSCLC = tested on: A549 NSCLC
PC-3 prostate = tested on: PC-3 prostate
KM12 colon = tested on: KM12 colon
MDA-MB-435 melanoma = tested on: MDA-MB-435 melanoma
HCT-116 colon = tested on: HCT-116 colon
HT29 colon = tested on: HT29 colon
HOP-92 NSCLC = tested on: HOP-92 NSCLC
OVCAR-3 ovarian = tested on: OVCAR-3 ovarian

## C1CN1c1nc(N2CC2)nc(N2CC2)n1
OVCAR-8 ovarian
  GI50: 1.39 µM
  TGI: 15.9 µM
SNB-19 CNS
  GI50: 3.73 µM
  TGI: 18.1 µM
MDA-MB-468 breast
  GI50: 0.139 µM
  TGI: 0.586 µM
UACC-257 melanoma
  GI50: 12.5 µM
  TGI: 25.2 µM
CAKI-1 renal
  GI50: 1.46 µM
  TGI: 14.2 µM
SK-MEL-2 melanoma
  GI50: 8.35 µM
  TGI: 18.8 µM
SNB-75 CNS
  GI50: 1.67 µM
  TGI: 10.3 µM
OVCAR-4 ovarian
  GI50: 14.7 µM
  TGI: 29 µM
SN12C renal
  GI50: 1.21 µM
  TGI: 10.3 µM
SK-MEL-28 melanoma
  GI50: 10.3 µM
  TGI: 22.1 µM
MALME-3M melanoma
  GI50: 4.87 µM
  TGI: 18.6 µM
RPMI-8226 leukemia
  GI50: 0.736 µM
  TGI: 3.11 µM
HCT-15 colon
  GI50: 2.34 µM
  TGI: 14.1 µM
TK-10 renal
  GI50: 14.3 µM
  TGI: 35 µM
CCRF-CEM leukemia
  GI50: 0.449 µM
  TGI: 1.35 µM
SK-OV-3 ovarian
  GI50: 2.76 µM
  TGI: 12.2 µM
MDA-MB-231 breast
  GI50: 11.7 µM
  TGI: 25.2 µM
MCF7 breast
  GI50: 1.51 µM
  TGI: 18 µM
IGROV1 ovarian
  GI50: 10.8 µM
  TGI: 22.9 µM
NCI-H522 lung
  GI50: 1.36 µM
  TGI: 2.87 µM
EKVX NSCLC
  GI50: 15.5 µM
  TGI: 31 µM
T-47D breast
  GI50: 5.49 µM
  TGI: 22.7 µM
SF-539 CNS
  GI50: 1.46 µM
  TGI: 4.3 µM
A498 renal
  GI50: 3.36 µM
  TGI: 18.6 µM
MOLT-4 leukemia
  GI50: 0.0877 µM
  TGI: 0.21 µM
K-562 leukemia
  GI50: 3.96 µM
  TGI: 17.4 µM
BT-549 breast
  GI50: 2.16 µM
  TGI: 11.5 µM
HS 578T breast
  GI50: 11.6 µM
  TGI: 24 µM
LOX IMVI melanoma
  GI50: 2.25 µM
  TGI: 14.8 µM
NCI/ADR-RES ovarian
  GI50: 3.02 µM
  TGI: 15.1 µM
HOP-62 NSCLC
  GI50: 0.589 µM
  TGI: 2.75 µM
SF-268 CNS
  GI50: 0.68 µM
  TGI: 10.2 µM
NCI-H226 lung
  GI50: 4.42 µM
  TGI: 19.9 µM
786-0 renal
  GI50: 2.59 µM
  TGI: 11.9 µM
NCI-H322M lung
  GI50: 13.3 µM
  TGI: 27.9 µM
SF-295 CNS
  GI50: 1.08 µM
  TGI: 2.84 µM
NCI-H23 lung
  GI50: 1.22 µM
  TGI: 4.3 µM
RXF 393 renal
  GI50: 3.11 µM
  TGI: 13.1 µM
SW-620 colon
  GI50: 2.84 µM
  TGI: 20 µM
DU-145 prostate
  GI50: 1.04 µM
  TGI: 5.94 µM
UACC-62 melanoma
  GI50: 1.34 µM
  TGI: 11.6 µM
ACHN renal
  GI50: 1.55 µM
  TGI: 4.03 µM
OVCAR-5 ovarian
  GI50: 5.96 µM
  TGI: 22 µM
U251 glioblastoma
  GI50: 1.42 µM
  TGI: 13.3 µM
UO-31 renal
  GI50: 5.17 µM
  TGI: 17.9 µM
M14 melanoma
  GI50: 1.74 µM
  TGI: 10.5 µM
HL-60(TB) leukemia
  GI50: 0.144 µM
  TGI: 0.3 µM
A549 NSCLC
  GI50: 3.42 µM
  TGI: 19.5 µM
PC-3 prostate
  GI50: 10.7 µM
  TGI: 23.4 µM
KM12 colon
  GI50: 2.47 µM
  TGI: 54.9 µM
MDA-MB-435 melanoma
  GI50: 10.8 µM
  TGI: 23.1 µM
HCT-116 colon
  GI50: 1.61 µM
  TGI: 16.6 µM
HT29 colon
  GI50: 2.75 µM
  TGI: 15.3 µM
HOP-92 NSCLC
  GI50: 6.61 µM
  TGI: 58.6 µM
OVCAR-3 ovarian
  GI50: 3.13 µM
  TGI: 14.5 µM
